Measurements from US8802866B2, “Pyridinylimidazolone derivatives for the inhibition of PI3 kinases” (Merck Patent GmbH, priority 2009, dated 2014).

Key:
PI3Kbeta = PI3Kbeta (Homo sapiens, UniProt P42338); assay: Biochemical PI3Kbeta assay (neomycin SPA, lipid phosphorylation); settings: human recombinant GST-PI3K
In short: (§1)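 Recombinant PI3K incubated with lipid substrate and radioactive ATP for 120 min at room temperature with gentle stirring, then stopped with neomycin-coated PVT-SPA beads, ATP 60 mM and EDTA 6.2 mM in PBS. After 60 min bead binding and centrifugation, radioactive Ptdlns(3)P counted by scintillation.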

DNA-PK protein complex = DNA-PK protein complex (Homo sapiens, UniProt P78527); assay: Biochemical DNA-PK assay (FlashPlate)
In short: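 Streptavidin-coated FlashPlate radiometric kinase assay, stopped with 200 mM EDTA, then wells washed with 0.9% NaCl and bound radioactivity counted. Blank (non-specific reaction) defined with a proprietary kinase inhibitor at 10 μM.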

[1] = test system: PI3K-dependent phosphorylation of PKB at Serin 473 in PC3 cells; assay: Cellular PI3K assay (P-S473-PKB Luminex assay in PC3 cells); format: cell-based; settings: Homo sapiens, PC-3, 0.5 h; PC3 cells, 30 min, serum-free, P-S473-PKB; read-out: IC50 (cell)
In short: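 PC3 cells were exposed for 30 min under serum-free conditions to 7 concentrations of compound, then lysed. Lysates were captured overnight at 4°C on anti-total-PKB Luminex beads and detected with P-S473-PKB antibody plus PE-labelled secondary.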

mTOR = biological target: T1, mTOR (Homo sapiens, UniProt P42345); assay: Biochemical mTOR assay (Millipore mTOR assay kit)
T1 construct: purchased Millipore 14-770
Description: The biochemical mTOR assay was carried out by the method described in the Millipore mTOR assay kit (catalogue number 14-770).

[2] = biological target: recombinant PI3Kalpha (shortened form of the catalytic subunit) (Homo sapiens, UniProt P42336); assay: BIACORE PI3K binding assay (SPR); settings: 25° C.
In short: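 Contact time was 180 s and dissociation 240 s, in HEPES pH 7.40 buffer with 2% DMSO. Solvent-corrected, double-referenced data were fitted to a 1:1 model with mass transport.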

PI3Kalpha = PI3Kalpha (Homo sapiens, UniProt P42336); assay: Biochemical PI3Kalpha assay (neomycin SPA, lipid phosphorylation); settings: human recombinant GST-PI3K
In short: as §1

PI3Kbeta, sequence (P42338 whole entry): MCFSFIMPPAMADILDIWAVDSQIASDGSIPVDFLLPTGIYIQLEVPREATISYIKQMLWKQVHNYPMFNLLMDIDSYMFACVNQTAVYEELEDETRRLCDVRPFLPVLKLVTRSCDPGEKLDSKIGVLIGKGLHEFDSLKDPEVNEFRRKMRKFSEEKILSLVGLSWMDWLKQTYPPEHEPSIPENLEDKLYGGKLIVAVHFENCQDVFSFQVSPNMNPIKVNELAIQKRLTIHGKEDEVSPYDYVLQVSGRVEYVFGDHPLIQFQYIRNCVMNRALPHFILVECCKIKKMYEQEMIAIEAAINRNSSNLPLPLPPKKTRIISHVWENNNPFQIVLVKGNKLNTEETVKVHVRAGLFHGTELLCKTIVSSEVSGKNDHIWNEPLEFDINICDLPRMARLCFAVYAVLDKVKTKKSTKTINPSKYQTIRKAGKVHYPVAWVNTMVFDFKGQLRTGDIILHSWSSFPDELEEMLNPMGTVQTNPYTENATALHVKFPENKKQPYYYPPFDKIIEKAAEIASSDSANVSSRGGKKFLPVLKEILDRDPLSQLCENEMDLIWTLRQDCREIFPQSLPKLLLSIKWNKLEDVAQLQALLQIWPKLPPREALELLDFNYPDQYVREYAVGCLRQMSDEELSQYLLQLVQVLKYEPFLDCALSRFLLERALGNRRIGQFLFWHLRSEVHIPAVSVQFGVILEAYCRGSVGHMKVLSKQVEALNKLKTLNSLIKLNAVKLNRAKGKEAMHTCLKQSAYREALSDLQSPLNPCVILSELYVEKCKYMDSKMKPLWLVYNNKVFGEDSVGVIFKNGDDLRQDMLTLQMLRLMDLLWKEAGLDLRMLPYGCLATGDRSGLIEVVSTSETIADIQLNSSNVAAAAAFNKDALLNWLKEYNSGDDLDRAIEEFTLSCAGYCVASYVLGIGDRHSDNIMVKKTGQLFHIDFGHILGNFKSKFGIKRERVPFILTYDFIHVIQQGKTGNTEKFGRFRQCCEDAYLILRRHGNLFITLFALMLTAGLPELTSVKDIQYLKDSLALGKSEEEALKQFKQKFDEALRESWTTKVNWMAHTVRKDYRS
PI3Kbeta, sequence (P27986 whole entry partner): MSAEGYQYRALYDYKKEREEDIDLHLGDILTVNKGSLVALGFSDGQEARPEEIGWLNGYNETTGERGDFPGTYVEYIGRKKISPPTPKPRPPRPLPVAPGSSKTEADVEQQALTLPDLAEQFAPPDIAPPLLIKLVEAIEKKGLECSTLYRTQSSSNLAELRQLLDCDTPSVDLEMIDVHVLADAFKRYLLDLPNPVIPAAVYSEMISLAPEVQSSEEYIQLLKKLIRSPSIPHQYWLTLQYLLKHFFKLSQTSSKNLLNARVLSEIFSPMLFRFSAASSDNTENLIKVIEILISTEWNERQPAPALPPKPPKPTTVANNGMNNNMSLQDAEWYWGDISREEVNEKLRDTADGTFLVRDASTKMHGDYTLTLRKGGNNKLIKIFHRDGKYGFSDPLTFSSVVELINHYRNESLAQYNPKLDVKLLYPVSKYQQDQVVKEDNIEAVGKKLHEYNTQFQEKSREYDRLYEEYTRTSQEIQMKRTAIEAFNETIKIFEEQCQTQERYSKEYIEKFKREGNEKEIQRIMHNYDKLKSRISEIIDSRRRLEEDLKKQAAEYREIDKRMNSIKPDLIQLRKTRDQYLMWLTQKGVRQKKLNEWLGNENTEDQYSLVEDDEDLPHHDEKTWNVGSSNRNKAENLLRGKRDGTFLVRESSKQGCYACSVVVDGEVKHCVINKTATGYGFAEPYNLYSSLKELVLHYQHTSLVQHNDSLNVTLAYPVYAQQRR
recombinant PI3Kalpha (shortened form of the catalytic subunit), sequence (P42336 151-1068 limits assumed): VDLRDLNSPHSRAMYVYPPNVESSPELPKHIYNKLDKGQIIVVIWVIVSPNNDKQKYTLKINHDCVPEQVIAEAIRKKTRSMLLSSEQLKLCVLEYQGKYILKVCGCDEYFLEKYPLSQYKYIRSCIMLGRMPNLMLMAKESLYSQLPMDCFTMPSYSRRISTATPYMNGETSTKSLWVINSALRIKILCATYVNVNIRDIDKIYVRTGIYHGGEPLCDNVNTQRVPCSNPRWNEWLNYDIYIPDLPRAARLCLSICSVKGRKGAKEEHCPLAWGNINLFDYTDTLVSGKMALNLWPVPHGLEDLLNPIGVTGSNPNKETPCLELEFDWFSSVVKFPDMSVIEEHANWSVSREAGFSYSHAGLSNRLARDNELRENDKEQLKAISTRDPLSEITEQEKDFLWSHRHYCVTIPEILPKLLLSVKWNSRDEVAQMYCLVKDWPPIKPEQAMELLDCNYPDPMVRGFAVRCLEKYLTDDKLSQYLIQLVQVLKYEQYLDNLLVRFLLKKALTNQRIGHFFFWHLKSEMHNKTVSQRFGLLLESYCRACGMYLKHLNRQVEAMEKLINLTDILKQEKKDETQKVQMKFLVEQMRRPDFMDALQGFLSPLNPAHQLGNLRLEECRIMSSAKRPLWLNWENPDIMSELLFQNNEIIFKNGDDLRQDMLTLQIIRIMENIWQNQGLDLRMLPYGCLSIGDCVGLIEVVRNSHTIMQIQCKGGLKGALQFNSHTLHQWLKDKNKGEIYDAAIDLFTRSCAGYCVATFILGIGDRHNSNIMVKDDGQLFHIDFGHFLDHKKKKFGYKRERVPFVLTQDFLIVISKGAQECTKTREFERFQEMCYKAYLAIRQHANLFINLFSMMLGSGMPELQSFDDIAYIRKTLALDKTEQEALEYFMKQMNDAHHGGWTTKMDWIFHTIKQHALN
T1 sequence (P42345 1362-2549 limits assumed): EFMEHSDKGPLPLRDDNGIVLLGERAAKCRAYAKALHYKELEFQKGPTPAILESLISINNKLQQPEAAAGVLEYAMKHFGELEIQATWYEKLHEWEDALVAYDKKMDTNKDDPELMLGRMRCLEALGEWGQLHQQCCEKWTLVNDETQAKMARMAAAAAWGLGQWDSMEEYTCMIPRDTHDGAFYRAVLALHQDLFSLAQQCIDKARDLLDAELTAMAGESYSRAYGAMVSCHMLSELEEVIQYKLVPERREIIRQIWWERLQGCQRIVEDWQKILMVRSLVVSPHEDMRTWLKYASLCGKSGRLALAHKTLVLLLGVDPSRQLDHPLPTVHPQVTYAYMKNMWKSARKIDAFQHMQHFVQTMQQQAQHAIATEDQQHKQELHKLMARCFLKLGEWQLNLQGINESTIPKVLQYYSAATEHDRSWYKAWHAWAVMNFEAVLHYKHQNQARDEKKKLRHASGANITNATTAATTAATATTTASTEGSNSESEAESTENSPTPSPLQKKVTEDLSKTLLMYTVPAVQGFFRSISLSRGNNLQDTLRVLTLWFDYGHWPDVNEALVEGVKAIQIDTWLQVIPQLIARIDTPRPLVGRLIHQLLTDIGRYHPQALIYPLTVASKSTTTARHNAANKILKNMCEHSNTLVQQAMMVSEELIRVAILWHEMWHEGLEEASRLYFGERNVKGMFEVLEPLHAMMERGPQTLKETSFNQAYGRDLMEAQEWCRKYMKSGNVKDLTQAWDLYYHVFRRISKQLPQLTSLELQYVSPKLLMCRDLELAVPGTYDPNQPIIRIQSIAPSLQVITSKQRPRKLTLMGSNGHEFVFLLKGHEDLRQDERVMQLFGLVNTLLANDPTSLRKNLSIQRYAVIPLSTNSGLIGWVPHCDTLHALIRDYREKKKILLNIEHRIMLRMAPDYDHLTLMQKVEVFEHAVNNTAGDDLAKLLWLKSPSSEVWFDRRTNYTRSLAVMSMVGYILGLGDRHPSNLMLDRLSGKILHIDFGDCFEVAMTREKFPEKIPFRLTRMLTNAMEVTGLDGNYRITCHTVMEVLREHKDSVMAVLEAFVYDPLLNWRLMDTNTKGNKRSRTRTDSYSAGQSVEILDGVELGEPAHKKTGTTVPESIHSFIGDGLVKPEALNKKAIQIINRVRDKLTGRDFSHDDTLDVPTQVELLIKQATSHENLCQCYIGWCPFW
PI3Kalpha, sequence (P42336 whole entry): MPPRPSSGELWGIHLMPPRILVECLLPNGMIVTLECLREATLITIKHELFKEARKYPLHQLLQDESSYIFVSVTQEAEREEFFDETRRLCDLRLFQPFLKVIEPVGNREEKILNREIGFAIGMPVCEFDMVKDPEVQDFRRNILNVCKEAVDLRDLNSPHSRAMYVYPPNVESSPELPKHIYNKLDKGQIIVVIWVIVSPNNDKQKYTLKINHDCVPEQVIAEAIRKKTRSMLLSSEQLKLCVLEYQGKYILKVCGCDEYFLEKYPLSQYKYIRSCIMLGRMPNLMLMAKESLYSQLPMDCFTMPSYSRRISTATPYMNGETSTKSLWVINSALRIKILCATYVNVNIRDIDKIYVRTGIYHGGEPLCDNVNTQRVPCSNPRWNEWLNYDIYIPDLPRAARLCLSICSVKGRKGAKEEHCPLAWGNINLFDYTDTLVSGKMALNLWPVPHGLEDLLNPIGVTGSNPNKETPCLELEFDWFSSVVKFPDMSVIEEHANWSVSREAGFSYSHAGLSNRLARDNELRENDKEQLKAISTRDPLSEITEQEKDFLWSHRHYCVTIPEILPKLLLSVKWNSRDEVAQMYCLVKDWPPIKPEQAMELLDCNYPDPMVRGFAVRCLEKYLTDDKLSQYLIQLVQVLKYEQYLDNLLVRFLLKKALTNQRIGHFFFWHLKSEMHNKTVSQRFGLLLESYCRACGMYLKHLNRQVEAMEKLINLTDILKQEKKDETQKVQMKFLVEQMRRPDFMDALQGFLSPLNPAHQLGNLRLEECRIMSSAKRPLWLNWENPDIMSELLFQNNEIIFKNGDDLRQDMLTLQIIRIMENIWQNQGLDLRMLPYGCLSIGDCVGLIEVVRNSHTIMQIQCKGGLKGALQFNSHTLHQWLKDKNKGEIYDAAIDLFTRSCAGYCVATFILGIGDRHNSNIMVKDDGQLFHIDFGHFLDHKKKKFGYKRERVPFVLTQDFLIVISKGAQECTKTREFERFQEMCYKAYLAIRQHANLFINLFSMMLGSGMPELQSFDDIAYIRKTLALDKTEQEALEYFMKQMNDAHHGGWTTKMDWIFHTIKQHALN
PI3Kalpha, sequence (P27986 whole entry partner): as the sequence (P27986 whole entry partner) above

| Compound | IC50 (PI3Kbeta) [nM] | IC50 (DNA-PK protein complex) [nM] | IC50 [1] [nM] | IC50 (mTOR) [nM] | Kd [2] [nM] | melting point | IC50 (PI3Kalpha) [nM] |
| --- | --- | --- | --- | --- | --- | --- | --- |
| Cn1cc(-c2cc(-c3cnc4ccccc4c3)ccn2)n(-c2ccc(C(C)(C)C#N)cc2)c1=O [Example A1, 2-Methyl-2-{4-[3-methyl-2-oxo-5-(4-quinolin-3-ylpyridin-2-yl)-2,3-dihydroimidazol-1-yl]phenyl}propionitrile] | 100 to 10000 | 0.1 to 100 | 100 to 10000 | 0.1 to 100 | 100 to 10000 | 228 °C | 100 to 10000 |
| COc1ccc(-c2ccnc(-c3cn(C)c(=O)n3-c3ccc(C(C)(C)C#N)cc3)c2)cn1 [Example A9, 2-{4-[5-(6-Methoxy-[3,4′]bipyridinyl-2′-yl)-3-methyl-2-oxo-2,3-dihydroimidazol-1-yl]phenyl}-2-methylpropionitrile] | 100 to 10000 | 0.1 to 100 | 100 to 10000 | 100 to 10000 | 100 to 10000 | 187 °C | 100 to 10000 |
| Cn1cc(-c2cc(-c3cnc4[nH]ccc4c3)ccn2)n(-c2ccc(C(C)(C)C#N)cc2)c1=O [Example A12, 2-Methyl-2-(4-{3-methyl-2-oxo-5-[4-(1H-pyrrolo[2,3-b]pyridin-5-yl)pyridin-2-yl]-2,3-dihydroimidazol-1-yl}phenyl)propionitrile] | 100 to 10000 | 0.1 to 100 | 0.1 to 100 | 100 to 10000 | 0.1 to 100 | 248 °C | 0.1 to 100 |
| COc1ccc(-c2ccnc(-c3cn(C)c(=O)n3-c3ccc(C(C)(C)C#N)cc3)c2)cc1 [Example A13, 2-(4-{5-[4-(4-Methoxyphenyl)pyridin-2-yl]-3-methyl-2-oxo-2,3-dihydroimidazol-1-yl}phenyl)-2-methylpropionitrile] | > 10000 | 0.1 to 100 | > 10000 | 100 to 10000 | 100 to 10000 | 219 °C | > 10000 |
| Cn1cc(-c2cc(-c3cnc4[nH]cc(C(F)(F)F)c4c3)ccn2)n(-c2ccc(C(C)(C)C#N)cc2)c1=O [Example A18, 2-Methyl-2-(4-{3-methyl-2-oxo-5-[4-(3-trifluoromethyl-1H-pyrrolo[2,3-b]pyridin-5-yl)pyridin-2-yl]-2,3-dihydroimidazol-1-yl}phenyl)propionitrile] | 100 to 10000 | 100 to 10000 | 0.1 to 100 | – | 0.1 to 100 | 159 °C | 100 to 10000 |
| Cn1cc(-c2cc(-c3cnc4ccccc4c3)ccn2)n(-c2ccc(C(C)(C)C(N)=O)cc2)c1=O [Example A21, 2-{-4-[3-Methyl-2-oxo-5-(4-quinolin-3-ylpyridin-2-yl)-2,3-dihydroimidazol-1-yl]-phenyl}isobutyramide] | 100 to 10000 | 0.1 to 100 | > 10000 | 100 to 10000 | 0.1 to 100 | 259 °C | 100 to 10000 |
| Cn1cc(-c2cc(-c3cnc4[nH]ccc4c3)ccn2)n(-c2ccc(N3CCNCC3)c(C(F)(F)F)c2)c1=O [Example A25, 1-Methyl-3-(4-piperazin-1-yl-3-trifluoromethylphenyl)-4-[4-(1H-pyrrolo[2,3-b]-pyridin-5-yl)pyridin-2-yl]-1,3-dihydroimidazol-2-one] | 0.1 to 100 | 100 to 10000 | 100 to 10000 | – | 0.1 to 100 | 163 °C | 100 to 10000 |
| Cn1cc(-c2cc(-c3ccsc3)ccn2)n(-c2ccc(C(C)(C)C#N)cc2)c1=O [Example A26, 2-Methyl-2-{4-[3-methyl-2-oxo-5-(4-thiophen-3-ylpyridin-2-yl)-2,3-dihydro-imidazol-1-yl]phenyl}propionitrile] | > 10000 | 0.1 to 100 | > 10000 | 100 to 10000 | 100 to 10000 | 209 °C | 100 to 10000 |
| N#CCc1ccc(-n2c(-c3cc(-c4cnc5[nH]ccc5c4)ccn3)c[nH]c2=O)cc1 [Example A31, (4-{2-oxo-5-[4-(1H-pyrrolo[2,3-b]pyridin-5-yl)pyridin-2-yl]-2,3-dihydroimidazol-1-yl}phenyl)acetonitrile] | 100 to 10000 | 0.1 to 100 | 100 to 10000 | 100 to 10000 | 0.1 to 100 | > 410 °C (dec.) | 100 to 10000 |
| Cn1cc(-c2cc(-c3cnc4[nH]ccc4c3)ccn2)n(-c2ccc(C(C)(C)C(N)=O)cc2)c1=O [Example A34, 2-(4-{3-Methyl-2-oxo-5-[4-(1H-pyrrolo[2,3-b]pyridin-5-yl)pyridin-2-yl]-2,3-dihydroimidazol-1-yl}phenyl)isobutyramide] | 100 to 10000 | 0.1 to 100 | 100 to 10000 | 100 to 10000 | – | 299 °C | 0.1 to 100 |
| Cn1cc(-c2cc(-c3cnc4[nH]ccc4c3)ccn2)n(-c2ccc(C(C)(C)CN)cc2)c1=O [Example A35, 3-[4-(2-Amino-1,1-dimethylethyl)phenyl]-1-methyl-4-[4-(1H-pyrrolo[2,3-b]-pyridin-5-yl)pyridin-2-yl]-1,3-dihydroimidazol-2-one] | 100 to 10000 | 0.1 to 100 | 100 to 10000 | 100 to 10000 | – | 91 °C | 100 to 10000 |
| Cn1cc(-c2cc(-c3cnc(N)c(C(F)(F)F)c3)ccn2)n(-c2ccc(C(C)(C)C#N)cc2)c1=O [Example A40, 2-{4-[5-(6-Amino-5-trifluoromethyl-[3,4′]bipyridinyl-2′-yl)-3-methyl-2-oxo-2,3-dihydroimidazol-1-yl]phenyl}-2-methylpropionitrile] | 0.1 to 100 | 0.1 to 100 | 0.1 to 100 | – | 0.1 to 100 | 195 °C | 0.1 to 100 |
| CNc1ccc(-c2ccnc(-c3cn(C)c(=O)n3-c3ccc(C(C)(C)C#N)cc3)c2)cn1 [Example A42, 2-Methyl-2-{4-[3-methyl-5-(6-methylamino-[3,4′]bipyridinyl-2′-yl)-2-oxo-2,3-dihydroimidazol-1-yl]phenyl}propionitrile] | 100 to 10000 | 0.1 to 100 | 100 to 10000 | – | 0.1 to 100 | 191 °C | 100 to 10000 |
| Cn1cc(-c2cc(-c3cnc4[nH]ccc4c3)ccn2)n(-c2ccccc2)c1=O [Example A47, 1-Methyl-3-phenyl-4-[4-(1H-pyrrolo[2,3-b]pyridin-5-yl)pyridin-2-yl]-1,3-dihydroimidazol-2-one] | 100 to 10000 | 0.1 to 100 | 100 to 10000 | 100 to 10000 | – | 264 °C | 100 to 10000 |
| Cn1cc(-c2cc(-c3ccc4[nH]ccc4c3)ccn2)n(-c2ccc(C(C)(C)C#N)cc2)c1=O [Example A53, 2-(4-{5-[4-(1H-Indol-5-yl)pyridin-2-yl]-3-methyl-2-oxo-2,3-dihydroimidazol-1-yl}-phenyl)-2-methylpropionitrile] | > 10000 | 0.1 to 100 | 100 to 10000 | – | 100 to 10000 | 238 °C | 100 to 10000 |
| COc1cc(-n2c(-c3cc(-c4cnc5[nH]ccc5c4)ccn3)cn(C)c2=O)ccc1Cl [Example A58, 3-(4-Chloro-3-methoxyphenyl)-1-methyl-4-[4-(1H-pyrrolo[2,3-b]pyridin-5-yl)-pyridin-2-yl]-1,3-dihydroimidazol-2-one] | 100 to 10000 | 100 to 10000 | 100 to 10000 | – | 100 to 10000 | 223 °C | 100 to 10000 |
